ChEMBL document CHEMBL1201862, “PubChem BioAssay data set” (2004)
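These data come from cells grown in 96-well plates and exposed to compound for 48 hours at five concentrations. At the GI50, growth is halved.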 Calls of active or inactive are those of the source. No stated cut-off is given here; in the data, active = GI50 up to about 1.1 µM and inactive = higher.

Columns and labels:
Assay in all cases: NCI anticancer screen, dose series, 48 h
LOX IMVI = system: LOX IMVI
Malme-3M = system: Malme-3M
HCT-116 = system: HCT-116
IGROV-1 = system: IGROV-1
RPMI-8226 = system: RPMI-8226
A498 = system: A498
UACC-257 = system: UACC-257
SK-MEL-5 = system: SK-MEL-5
NCI-H226 = system: NCI-H226
EKVX = system: EKVX
OVCAR-4 = system: OVCAR-4
M14 = system: M14
CCRF-CEM = system: CCRF-CEM
HOP-62 = system: HOP-62
UO-31 = system: UO-31
Hs-578T = system: Hs-578T
TK-10 = system: TK-10
MOLT-4 = system: MOLT-4
MDA-MB-435 = system: MDA-MB-435
SK-MEL-2 = system: SK-MEL-2

Measured: GI50

O=C(O)CCNc1ccccc1C(=O)O
inactive: LOX IMVI > 100 µM | Malme-3M > 100 µM | HCT-116 > 100 µM | IGROV-1 > 100 µM | RPMI-8226 > 100 µM | A498 > 100 µM | UACC-257 > 100 µM | SK-MEL-5 > 100 µM | NCI-H226 > 100 µM | EKVX 99.1 µM | OVCAR-4 > 100 µM | M14 > 100 µM | CCRF-CEM > 100 µM | HOP-62 > 100 µM | UO-31 > 100 µM | Hs-578T > 100 µM | TK-10 > 100 µM | MOLT-4 > 100 µM | MDA-MB-435 > 100 µM | SK-MEL-2 > 100 µM

CCCCCCCSCC(O)COC(c1ccccc1)(c1ccccc1)c1ccccc1 (stereo not given)
inactive: LOX IMVI 36.1 µM | Malme-3M 60 µM | HCT-116 40.6 µM | IGROV-1 > 100 µM | RPMI-8226 17.5 µM | A498 > 100 µM | UACC-257 34.5 µM | SK-MEL-5 23.6 µM | NCI-H226 18.1 µM | EKVX 53 µM | OVCAR-4 49.9 µM | M14 61.7 µM | CCRF-CEM 29.7 µM | HOP-62 > 100 µM | UO-31 5.81 µM | Hs-578T 3.52 µM | TK-10 87.3 µM | MOLT-4 28.4 µM | MDA-MB-435 56.4 µM | SK-MEL-2 18.3 µM

COc1ccc2nc3cc(Cl)ccc3c(Nc3ccccc3-c3ccccc3Nc3c4ccc(Cl)cc4nc4ccc(OC)cc34)c2c1
inactive: LOX IMVI 18.2 µM | Malme-3M 35.2 µM | HCT-116 11.7 µM | IGROV-1 45.7 µM | RPMI-8226 8.17 µM | A498 > 56.5 µM | UACC-257 27.5 µM | SK-MEL-5 18.1 µM | NCI-H226 > 41.1 µM | EKVX 52 µM | OVCAR-4 17.4 µM | M14 43.6 µM | CCRF-CEM 4.52 µM | HOP-62 55.7 µM | UO-31 26.9 µM | Hs-578T 27.7 µM | TK-10 64.1 µM | MOLT-4 3.13 µM | MDA-MB-435 8.32 µM | SK-MEL-2 34.2 µM

Clc1ccc(C(c2ccccc2Cl)C(Cl)Cl)cc1 (stereo not given) [MITOTANE]
inactive: LOX IMVI 21.3 µM | Malme-3M 14.1 µM | HCT-116 13.2 µM | IGROV-1 13.9 µM | RPMI-8226 14.5 µM | A498 20.2 µM | UACC-257 19.4 µM | SK-MEL-5 15.8 µM | NCI-H226 16.5 µM | EKVX 17.3 µM | OVCAR-4 16 µM | M14 19.3 µM | CCRF-CEM 17.7 µM | HOP-62 18.2 µM | UO-31 16.9 µM | Hs-578T 3.26 µM | TK-10 20 µM | MOLT-4 14.7 µM | MDA-MB-435 3.08 µM | SK-MEL-2 18.3 µM
